Holding throughout (format): in vivo
The subject of assay [1] is male ICR mouse. Put plainly: Acetic acid-induced writhing test in mouse. Particulars: po, p.o, acetic acid i.p. 1 hour after dosing, writhing counted for 10 minutes, read-out: Writhing Test Suppression of pain response. Put shortly: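 Test material given orally at 10 mg/kg to male mice (30–35 g); 1 h later 0.8% acetic acid injected i.p. Writhes counted over 10 min immediately afterwards; analgesia expressed as percent suppression of writhing versus vehicle group.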
(In general: In writhing tests, fewer writhes than in controls are read as antinociception.)

The test system of assay [2] is male ICR mouse. Put plainly: Hot plate test in mouse. Particulars: po, p.o, 1 hour after dosing, hot plate 55° C., read-out: Hot Plate Test Increase in latency of avoidance response. In short, it runs like this:
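Male ICR mice (25–30 g) dosed orally at 30 mg/kg and placed on a 55° C. hot plate 1 h later. Latency to forefoot or hind-leg avoidance (flinching, licking, jumping) recorded; effect expressed as % increase in latency over vehicle group.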
In general terms: In hot-plate and tail-flick tests a longer latency is read as antinociception.

Assay [3] deals with male ICR mouse. Put plainly: Elevated plus maze (EPM) test in mouse. Particulars: po, p.o, 1 hour after dosing, 5 minutes observation, read-out: Elevated Plus Maze Change index in Open-Arm Time. Put shortly: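 Male ICR mice (20–25 g) received test material orally at 10 mg/kg, and open-arm time on the maze was recorded over 5 min starting 1 h after dosing. Value is the change index in open-arm time: (treated − vehicle)/vehicle × 100%.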

Assay [4] relates to male ICR mouse. Put plainly: Head twitch potentiation induced by 5-HTP (5-HTP potentiation test) in mouse. As to conditions: po, 0.5 h, p.o, 5-HTP 80 mg/kg + Carbidopa 25 mg/kg i.p. 30 minutes after dosing, head twitches counted for 2 minutes, negative = 5-HT2A antagonist, read-out: 5-HTP Potentiation Increase rate in Head Twitch No. Put shortly:
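Male ICR mice (20-25 g) dosed orally at 30 mg/kg; 30 min later given 5-HTP (80 mg/kg) plus carbidopa (25 mg/kg) i.p. Head twitches counted for 2 min starting 30 min after i.p. dosing; effect expressed as % increase in twitch number versus vehicle group.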

Structures are written as SMILES.

Turning to `NC(=O)O[C@H](CC(=O)N1CCN(c2ccc(Cl)c(Cl)c2)CC1)c1ccccc1` [Example 68, (R)-carbamic acid 3-[4-(3,4-dichloro-phenyl)-piperazin-1-yl]-3-oxo-1-phenyl-propyl ester], the inhibition in vivo at 10 mg/kg in the assay with male ICR mouse [1] was determined as 51%. For the same compound, the values for the change in vivo at 30 mg/kg in the assay with male ICR mouse [2] and in the assay on male ICR mouse [4] were 15.7% and -28.6%, respectively. In addition, the change in vivo at 10 mg/kg in the assay on male ICR mouse [3] was determined as 1.5%.

As for `NC(=O)OC(CC(=O)N1CCN(Cc2ccc(Cl)c(Cl)c2)CC1)c1ccccc1` (stereo not drawn) [Example 37, carbamic acid 3-[4-(3,4-dichloro-benzyl)-piperazin-1-yl]-3-oxo-1-phenyl-propyl ester], in the assay on male ICR mouse [1], the inhibition in vivo at 10 mg/kg turned out to be 38.1%. Also, the change in vivo at 30 mg/kg in the assay with male ICR mouse [2] was 10%; with male ICR mouse [4], 167%. Besides, the change in vivo at 10 mg/kg in the assay with male ICR mouse [3] was found to be 98.8%.

For the compound `NC(=O)O[C@H](CC(=O)N1CCN(c2ccc(O)cc2)CC1)c1ccccc1` [Example 83, (R)-carbamic acid 3-[4-(4-hydroxy)-phenylpiperazin-1-yl]-3-oxo-1-phenyl-propyl ester], in the assay with male ICR mouse [1], the inhibition in vivo at 10 mg/kg is 44.5%. Besides, the change in vivo at 30 mg/kg in the assay with male ICR mouse [2] was determined as 89.3%; in the assay on male ICR mouse [4], 40.9%. Besides, in the assay on male ICR mouse [3], the change in vivo at 10 mg/kg was 52.7%.

Regarding `NC(=O)OC(CC(=O)N1CCN(c2ccccc2)CC1)c1cccc(C(F)(F)F)c1` (stereo not drawn) [Example 45, carbamic acid 1-(3-trifluormethyl-phenyl)-3-oxo-3-(4-phenyl-piperazin-1-yl)-propyl ester], the inhibition in vivo at 10 mg/kg in the assay on male ICR mouse [1] is 19%. The change in vivo at 30 mg/kg with male ICR mouse [2] was 6.9%; in the assay on male ICR mouse [4], 167%. Moreover, the change in vivo at 10 mg/kg in the assay on male ICR mouse [3] came out at 74.5%.

Regarding `NC(=O)OC(CC(=O)N1CCN(c2ccccc2)CC1)c1cc(C(F)(F)F)cc(C(F)(F)F)c1` (stereo not drawn) [Example 55, carbamic acid 1-(3,5-trifluoromethyl-phenyl)-3-oxo-3-(4-phenyl-piperazin-1-yl)-propyl ester], the inhibition in vivo at 10 mg/kg with male ICR mouse [1] turned out to be 32.8%. For the same compound, the change in vivo at 30 mg/kg in the assay on male ICR mouse [2] was found to be 13.9%; in the assay with male ICR mouse [4], 22.5%. Moreover, the change in vivo at 10 mg/kg in the assay with male ICR mouse [3] came out at 13.8%.

Turning to `NC(=O)OC(CC(=O)N1CCN(c2ccc(Cl)c(C(F)(F)F)c2)CC1)c1ccccc1` (stereo not drawn) [Example 27, carbamic acid 3-[4-(4-chloro-3-trifluoromethyl-phenyl)-piperazin-1-yl]-3-oxo-1-phenyl-propyl ester], the inhibition in vivo at 10 mg/kg in the assay on male ICR mouse [1] is 29.1%. For the same compound, the change in vivo at 30 mg/kg in the assay on male ICR mouse [2] was 41.2%; in the assay on male ICR mouse [4], -78.1%. Besides, in the assay on male ICR mouse [3], the change in vivo at 10 mg/kg amounted to 66.7%.

As to `NC(=O)O[C@@H](CC(=O)N1CCN(c2ccc(Cl)c(Cl)c2)CC1)c1ccccc1` [Example 66, (S)-carbamic acid 3-[4-(3,4-dichloro-phenyl)-piperazin-1-yl]-3-oxo-1-phenyl-propyl ester], the inhibition in vivo at 10 mg/kg in the assay on male ICR mouse [1] worked out at 62.5%. Besides, the change in vivo at 30 mg/kg with male ICR mouse [2] is 27.8%; in the assay with male ICR mouse [4] it was -39.5%. In the assay with male ICR mouse [3], the change in vivo at 10 mg/kg was found to be 50.6%.

In the case of `NC(=O)OC(CCC(=O)N1CCN(c2ccc(Cl)c(Cl)c2)CC1)c1ccccc1` (stereo not drawn) [Example 40, carbamic acid 4-[4-(3,4-dichloro-phenyl)-piperazin-1-yl]-4-oxo-1-phenyl-butyl ester], in the assay with male ICR mouse [1], the inhibition in vivo at 10 mg/kg worked out at 11.1%. Moreover, the change in vivo at 30 mg/kg in the assay with male ICR mouse [2] stood at 27.8%; in the assay with male ICR mouse [4], 311%. Moreover, in the assay with male ICR mouse [3], the change in vivo at 10 mg/kg was found to be 68.8%.

In the case of `Cc1ccc(N2CCN(C(=O)C[C@H](OC(N)=O)c3ccccc3)CC2)cc1` [Example 81, (S)-carbamic acid 3-[4-(4-methyl)-phenylpiperazin-1-yl]-3-oxo-1-phenyl-propyl ester], the inhibition in vivo at 10 mg/kg in the assay with male ICR mouse [1] was 20.1%. Further, the change in vivo at 30 mg/kg in the assay with male ICR mouse [2] was 9.2%; with male ICR mouse [4], -21.4%. For the same compound, the change in vivo at 10 mg/kg in the assay on male ICR mouse [3] amounted to 23%.

(Values after patent US8901116B2, “Method for treating pain, anxiety or depression using carbamoyloxy alkanoyl piperazine compound” (SK Biopharmaceuticals Co., Ltd., priority 2007, dated 2014).)
